Reference: PMC11338949, “E41K mutation activates Bruton’s tyrosine kinase by stabilizing an inositol hexakisphosphate-dependent invisible dimer” (The Journal of Biological Chemistry, 2024)

Molecular target: T1, full-length BTK^E41K (Mus musculus, UniProt P35991, E41K)
T1 construct: The full-length BTK was cloned into the pET28-SUMO vector; His-SUMO (N, cleaved yes); made in house; host or cells: E. coli BL21-DE3, co-transformed with YopH and Trigger factor
Assay: Autophosphorylation assay by immunoblot (Y551) of purified full-length BTK
Type: biochemical
Settings: 2 μM BTK, 100 μM ligand, compared to unliganded state
Experimental: The activation of full-length BTK in response to the ligand was determined from the autophosphorylation Y551 or total phosphotyrosine level. Before each reaction, 2 μM BTK was incubated with 100 μM ligand for 10 min. The phosphorylation reaction was performed at 25 °C in a buffer containing 25 mM Tris-Cl (pH 7.5), 2 mM ATP, 10 mM MgCl2, and 1 mM Na3VO4. The reaction was quenched with SDS–PAGE loading buffer. The autophosphorylation levels of full-length BTK were detected by immunoblot ([22]). The amount of BTK loaded was determined using an anti-BTK antibody. Densitometric analysis of immunoblots was performed using Fiji software ([52]).

T1 sequence (P35991 whole entry E41K): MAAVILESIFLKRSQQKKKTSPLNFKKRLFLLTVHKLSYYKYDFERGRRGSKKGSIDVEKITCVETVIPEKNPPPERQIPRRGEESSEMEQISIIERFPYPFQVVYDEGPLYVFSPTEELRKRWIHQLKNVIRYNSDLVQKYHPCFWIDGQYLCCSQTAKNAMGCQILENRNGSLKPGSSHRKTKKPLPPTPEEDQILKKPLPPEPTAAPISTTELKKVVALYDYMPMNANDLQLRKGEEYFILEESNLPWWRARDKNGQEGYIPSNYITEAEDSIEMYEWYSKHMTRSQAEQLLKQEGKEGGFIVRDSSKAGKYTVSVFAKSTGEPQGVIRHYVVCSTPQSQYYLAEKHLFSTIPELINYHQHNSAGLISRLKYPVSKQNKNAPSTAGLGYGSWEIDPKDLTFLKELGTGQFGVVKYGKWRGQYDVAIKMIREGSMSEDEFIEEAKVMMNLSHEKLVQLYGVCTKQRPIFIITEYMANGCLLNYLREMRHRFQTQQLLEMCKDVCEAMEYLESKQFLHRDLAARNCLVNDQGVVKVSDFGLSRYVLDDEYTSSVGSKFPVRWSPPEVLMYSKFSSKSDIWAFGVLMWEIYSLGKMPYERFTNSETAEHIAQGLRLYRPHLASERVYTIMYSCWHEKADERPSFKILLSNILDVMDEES

Row | Structure (SMILES) | Y551 phosphorylation of BTK^E41K
1 | O=P(O)(O)OC1C(OP(=O)(O)O)C(OP(=O)(O)O)C(OP(=O)(O)O)C(OP(=O)(O)O)C1OP(=O)(O)O (centres unmarked) [IP6, inositol hexakisphosphate] | significantly increases
2 | O=P(O)(O)O[C@@H]1[C@H](O)[C@H](O)[C@@H](OP(=O)(O)O)[C@H](OP(=O)(O)O)[C@H]1O [IP3] | does not induce
